Reference: US7183309B2, “Indole derivatives useful as progesterone receptor modulators” (Janssen Pharmaceutica N.V., priority 2004, dated 2007)

Test system: T47D human breast cancer cells
Experiment: In Vitro Testing-T47 D Assay (alkaline phosphatase assay)
Type: cell-based
Details: alkaline phosphatase luminescence readout after 24 h
Method: In Vitro Testing-T47 D Assay
T47D human breast cancer cells are grown in RPMI medium without phenol red (Invitrogen) containing 10% (v/v) heat-inactivated fetal bovine serum (FBS; Hyclone), 1% (v/v) penicillin-streptomycin (Invitrogen), 1% (w/v) glutamine (Invitrogen), and […] (Sigma). Incubation conditions are 37° C. in a humidified 5% (v/v) carbon dioxide environment. For assay, the cells are plated in 96-well tissue culture plates at 10,000 cells per well in assay medium [RPMI medium without phenol red (Invitrogen) containing 5% (v/v) charcoal-treated FBS (Hyclone) and 1% (v/v) penicillin-streptomycin (Invitrogen)]. Two days later, the medium is decanted and the compounds are added in a final concentration of 0.1% (v/v) dimethyl sulfoxide in fresh assay medium. Twenty-four hours later, an alkaline phosphatase assay is performed using a SEAP kit (BD Biosciences Clontech, Palo Alto, Calif.). Briefly, the medium is decanted and the cells are fixed for 30 minutes at room temperature with 5% (v/v) formalin (Sigma). The cells are washed once with room temperature Hank's buffered saline solution (Invitrogen). Equal volumes (0.05 mL) of 1× Dilution Buffer, Assay Buffer and 1:20 substrate/enhancer mixture are added. After 1-hour incubation at room temperature in the dark, the lysate is transferred to a white 96-well plate (Dynex) and luminescence is read using a LuminoSkan Ascent (Thermo Electron, Woburn, Mass.).

| IC50 (Homo sapiens, T47D, 24 h) | Compound | inhibition at 3 µM (Homo sapiens, T47D, 24 h) | also measured |
| --- | --- | --- | --- |
| 1900 nM | O=[N+]([O-])c1cccc(Sc2c(-c3ccccc3)[nH]c3cc(Cl)c(F)cc23)c1 [Example 6, 6-Chloro-5-fluoro-3-(3-nitro-phenylsulfanyl)-2-phenyl-1H-indole] | 99% |  |
|  | O=[N+]([O-])c1cccc(S(=O)(=O)c2c(-c3ccccc3)[nH]c3cc(Cl)c(F)cc23)c1 [Example 8, 6-Chloro-5-fluoro-3-(3-nitro-benzenesulfonyl)-2-phenyl-1H-indole] |  | inh. @ 3 uM: 82%; IC50: 3180 nM |
|  | CC(C)(O)c1[nH]c2cc(C(F)(F)F)c(C#N)cc2c1Sc1cccc([N+](=O)[O-])c1 [Example 4, 2-(1-Hydroxy-1-methyl-ethyl)-3-(3-nitro-phenylsulfanyl)-6-trifluoromethyl-1H-indole-5-carbonitrile] |  | inhibition at 3 µM (Homo sapiens): 69%; IC50 (Homo sapiens): 2190 nM |
| 3620 nM | O=[N+]([O-])c1cccc(S(=O)(=O)c2c(-c3ccccc3)[nH]c3cc(Cl)c(F)cc23)c1 [Example 7, 6-Chloro-5-fluoro-3-(3-nitro-benzenesulfonyl)-2-phenyl-1H-indole] |  | inh. @ 3 uM: 55% |
|  | CC(C)(O)c1[nH]c2cc(C(F)(F)F)c([N+](=O)[O-])cc2c1Sc1ccccc1 [Example 1, 2-(5-Nitro-3-phenylsulfanyl-6-trifluoromethyl-1H-indol-2-yl)-propan-2-ol] |  | inhibition at 3 µM (Homo sapiens): 99%; IC50 (Homo sapiens): 62 nM |
| > 10000 nM | C=C(C)c1[nH]c2cc(C(F)(F)F)c([N+](=O)[O-])cc2c1Sc1ccccc1 [Example 2, 2-Isopropenyl-5-nitro-3-phenylsulfanyl-6-trifluoromethyl-1H-indole] |  |  |
| 1400 nM | O=[N+]([O-])c1ccc(Sc2c(-c3ccccc3)[nH]c3cc(Cl)c(F)cc23)cc1 [Example 3, 6-Chloro-5-fluoro-3-(4-nitro-phenylsulfanyl)-2-phenyl-1H-indole] | 88% |  |
| 1760 nM | Fc1cc2c(Sc3ccccc3)c(-c3ccccc3)[nH]c2cc1Cl [Example 5, 6-Chloro-5-fluoro-2-phenyl-3-phenylsulfanyl-1H-indole] | 103% |  |
